Reference: ChEMBL document CHEMBL6182926, “Design, Synthesis, and Biological Activity Evaluation of Deuterated Diphenyl Azole Alcohol-Based CYP51 Inhibitors” (J Med Chem, 2025)
≈ marks a conversion by molar mass, not a printed value.

Key:
Candida albicans [1] = assay: Antifungal activity against Candida albicans CPCC 400616 assessed as inhibition of visible growth; type: functional
Candida tropicalis = assay: Antifungal activity against Candida tropicalis CGMCC 2.3739 assessed as inhibition of visible growth; type: functional
[2] = Metabolic stability in human liver microsomes assessed as half life by LC-MS/MS analysis; type: ADME, Microsome; settings: liver microsomes
[3] = Metabolic stability in human liver microsomes assessed as compound remaining measured up to 60 mins by LC-MS/MS analysis; type: ADME, Microsome; settings: liver microsomes, read-out: Activity
Cytochrome P450 1A2 = target: T1, Cytochrome P450 1A2 (Homo sapiens, UniProt P05177); assay: Inhibition of CYP1A2 in human liver microsomes using phenacetin as substrate measured after 10 mins by LC/MS/MS analysis; type: ADME, Microsome
T1 sequence (P05177 whole entry): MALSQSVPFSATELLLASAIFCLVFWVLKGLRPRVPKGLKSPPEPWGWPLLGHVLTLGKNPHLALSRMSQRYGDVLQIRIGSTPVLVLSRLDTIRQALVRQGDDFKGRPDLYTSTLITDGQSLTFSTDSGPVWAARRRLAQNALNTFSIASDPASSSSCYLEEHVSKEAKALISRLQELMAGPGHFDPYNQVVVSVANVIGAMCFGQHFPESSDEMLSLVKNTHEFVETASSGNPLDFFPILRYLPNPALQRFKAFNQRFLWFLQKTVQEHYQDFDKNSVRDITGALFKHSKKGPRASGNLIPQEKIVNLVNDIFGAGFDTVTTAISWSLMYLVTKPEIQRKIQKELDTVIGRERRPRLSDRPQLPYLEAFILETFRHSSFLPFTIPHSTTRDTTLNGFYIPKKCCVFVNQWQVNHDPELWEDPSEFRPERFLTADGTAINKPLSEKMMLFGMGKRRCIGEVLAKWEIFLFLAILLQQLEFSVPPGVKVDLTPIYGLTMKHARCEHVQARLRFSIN

Cytochrome P450 3A4 [4] = target: T2, Cytochrome P450 3A4 (Homo sapiens, UniProt P08684); assay: Inhibition of CYP3A4 in human liver microsomes using testosterone as substrate measured after 10 mins by LC/MS/MS analysis; type: ADME, Microsome
T2 sequence (P08684 whole entry): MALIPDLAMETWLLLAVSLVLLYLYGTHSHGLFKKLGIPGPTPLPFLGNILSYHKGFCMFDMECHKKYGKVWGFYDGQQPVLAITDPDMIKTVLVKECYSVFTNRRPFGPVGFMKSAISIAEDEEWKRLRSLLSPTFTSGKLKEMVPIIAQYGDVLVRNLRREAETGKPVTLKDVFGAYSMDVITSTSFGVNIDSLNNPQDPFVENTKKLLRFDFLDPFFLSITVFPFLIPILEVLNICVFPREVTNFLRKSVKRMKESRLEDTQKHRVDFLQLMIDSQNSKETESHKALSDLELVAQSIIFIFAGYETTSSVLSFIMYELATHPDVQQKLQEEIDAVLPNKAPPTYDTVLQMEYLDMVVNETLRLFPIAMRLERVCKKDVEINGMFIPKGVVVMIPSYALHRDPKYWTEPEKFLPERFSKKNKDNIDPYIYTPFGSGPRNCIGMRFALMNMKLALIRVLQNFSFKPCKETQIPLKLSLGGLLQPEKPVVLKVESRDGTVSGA

Cytochrome P450 3A4 [5] = target: T2, Cytochrome P450 3A4; assay: Inhibition of CYP3A4 in human liver microsomes using midazolam as substrate measured after 10 mins by LC/MS/MS analysis; type: ADME, Microsome
[6] = Cytotoxicity against human HUVEC cells measured after 72 hrs by MTT assay; type: toxicity, cell-based
[7] = (§1) Selectivity ratio, ratio of IC50 for cytotoxicity against human SH-SY5Y cells to MIC80 for antifungal activity against Candida albicans CPCC 400616; type: toxicity, cell-based
[8] = (§2) Selectivity ratio, ratio of IC50 for cytotoxicity against human SH-SY5Y cells to MIC80 for antifungal activity against Candida tropicalis CGMCC 2.3739; type: toxicity, cell-based
[9] = (§3) Selectivity ratio, ratio of IC50 for cytotoxicity against human SH-SY5Y cells to MIC80 for antifungal activity against Clinical isolate Candida glabrata; type: toxicity, cell-based
[10] = as §1; type: toxicity, cell-based; remark: listed apart in the source
[11] = as §2; type: toxicity, cell-based; remark: listed apart in the source
[12] = Selectivity ratio, ratio of IC50 for cytotoxicity against human SH-SY5Y cells to MIC80 for antifungal activity against Candida parapsilosis GIM 2.190; type: toxicity, cell-based
[13] = as §3; type: toxicity, cell-based; remark: listed apart in the source
Pichia kudriavzevii [14] = assay: Fungicidal activity against Candida krusei AS 2.1045 assessed as concentration of colonies (< 5) measured after 48 hrs incubation; type: functional
Nakaseomyces glabratus = assay: Fungicidal activity against Clinical isolate Candida glabrata assessed as concentration of colonies (< 5) measured after 48 hrs incubation; type: functional
Cryptococcus neoformans [15] = assay: Fungicidal activity against Cryptococcus neoformans CGMCC 2.3161 assessed as concentration of colonies (< 5) measured after 48 hrs incubation; type: functional
Pichia kudriavzevii [16] = assay: Fungicidal index, ratio of MFC for fungicidal activity against Candida krusei AS 2.1045 to MIC80 for antifungal activity against Candida krusei AS 2.1045; type: functional
Candida albicans [17] = assay: Antifungal activity against Candida albicans SC5314 assessed as reduction in Lanosterol at 0.05 ug/ml measured after 18 hrs incubation by gas chromatography-mass spectrometry (GCMS) analysis; type: functional; set-up: scale not given: the % may be the effect or the level left; settings: dose 0.05 µg/ml
Cryptococcus neoformans [18] = assay: Antifungal activity against Cryptococcus neoformans CGMCC 2.3161 assessed as reduction in 14alpha-methylsterols at 0.0125 ug/ml measured after 18 hrs incubation by gas chromatography-mass spectrometry (GCMS) analysis (reference value: 2.32%); type: functional; set-up: scale not given: the % may be the effect or the level left; settings: dose 0.0125 µg/ml
Cryptococcus neoformans [19] = assay: Antifungal activity against Cryptococcus neoformans CGMCC 2.3161 assessed as reduction in other sterol at 0.0125 ug/ml measured after 18 hrs incubation by gas chromatography-mass spectrometry (GCMS) analysis (reference value: 2.20%); type: functional; set-up: scale not given: the % may be the effect or the level left; settings: dose 0.0125 µg/ml
Cryptococcus neoformans [20] = assay: Antifungal activity against Cryptococcus neoformans CGMCC 2.3161 assessed as reduction in ergosterol at 0.125 ug/ml measured after 18 hrs incubation by gas chromatography-mass spectrometry (GCMS) analysis (reference value: 94.48%); type: functional; set-up: scale not given: the % may be the effect or the level left; settings: dose 0.125 µg/ml
Cryptococcus neoformans [21] = assay: Antifungal activity against Cryptococcus neoformans CGMCC 2.3161 assessed as reduction in 14alpha-methylsterols at 0.125 ug/ml measured after 18 hrs incubation by gas chromatography-mass spectrometry (GCMS) analysis (reference value: 2.32%); type: functional; set-up: scale not given: the % may be the effect or the level left; settings: dose 0.125 µg/ml
Cryptococcus neoformans [22] = assay: Antifungal activity against Cryptococcus neoformans CGMCC 2.3161 assessed as reduction in other sterol at 0.125 ug/ml measured after 18 hrs incubation by gas chromatography-mass spectrometry (GCMS) analysis (reference value: 2.20%); type: functional; set-up: scale not given: the % may be the effect or the level left; settings: dose 0.125 µg/ml
[23] = AUC (0 to infinity) in Sprague-Dawley rat at 10 mg/kg, po by LC-MS/MS analysis; type: ADME, organism-based; settings: in vivo
[24] = Half life in Sprague-Dawley rat at 3 mg/kg, iv by LC-MS/MS analysis; type: ADME, organism-based; settings: in vivo
[25] = Cmax in Sprague-Dawley rat at 3 mg/kg, iv by LC-MS/MS analysis; type: ADME, organism-based; settings: in vivo
[26] = AUC (0 to infinity) in Sprague-Dawley rat at 3 mg/kg, iv by LC-MS/MS analysis; type: ADME, organism-based; settings: in vivo
[27] = MRT (0 to infinity) in Sprague-Dawley rat at 3 mg/kg, iv by LC-MS/MS analysis; type: ADME, organism-based; settings: in vivo
[28] = Toxicity in ICR mouse assessed as mortality at 500 mg/kg, po single dose measured for 7 days; type: organism-based; settings: in vivo, 168 h, time 7 day
[29] = Toxicity in ICR mouse assessed as change in body weight at 500 mg/kg, po single dose measured for 7 days; type: organism-based; settings: in vivo, 168 h, time 7 day
[30] = Toxicity in ICR mouse assessed as structural alteration in liver at 500 mg/kg, po single dose measured for 7 days by hematoxylin-eosin (H/E) staining analysis; type: organism-based; settings: in vivo, 168 h, time 7 day
[31] = Toxicity in ICR mouse assessed as structural alteration in kidney at 500 mg/kg, po single dose measured for 7 days by hematoxylin-eosin (H/E) staining analysis; type: organism-based; settings: in vivo, 168 h, time 7 day
[32] = Subacute toxicity in ICR mouse assessed as change in body weight at 100 mg/kg, oral gavage for 14 consecutive days; type: organism-based; settings: in vivo, 336 h, time 14 day
[33] = Subacute toxicity in ICR mouse assessed as structural alteration in liver at 100 mg/kg, oral gavage for 14 consecutive days by hematoxylin-eosin (H/E) staining analysis; type: organism-based; settings: in vivo, 336 h, time 14 day

Work on `[2H]C([2H])([2H])N(Cc1ccc(-c2ccc(OC(F)(F)F)cc2)cc1)[C@H](C)[C@](O)(Cn1cncn1)c1ccc(F)cc1F` yielded an MIC80 (Candida albicans [1]) of 0.006 µg/mL (≈ 0.0112 µM), an MIC80 (Candida tropicalis) of 0.006 µg/mL (≈ 0.0112 µM) and a half-life [2] of 0.67 h. The remaining at 1 h [3] was 34.4%, the IC50 (Cytochrome P450 1A2) was over 10 µM and the IC50 (Cytochrome P450 3A4 [4]) was 5.11 µM. The IC50 (Cytochrome P450 3A4 [5]) was 6.62 µM, the IC50 at 72 h [6] was 23.5 µM and the selectivity ratio [7] was over 100. For the same molecule, the selectivity ratio [8] was over 100, the selectivity ratio [9] was over 100 and the selectivity ratio [10] was over 100. It also gave a selectivity ratio [11] of over 100, a selectivity ratio [12] of over 100 and a selectivity ratio [13] of over 100. It also gave an MFC (Pichia kudriavzevii [14]) of 0.125 µg/mL (≈ 0.233 µM), an MFC (Nakaseomyces glabratus) of 0.5 µg/mL (≈ 0.934 µM) and an MFC (Cryptococcus neoformans [15]) of 0.062 µg/mL (≈ 0.116 µM). For the same molecule, the Activity_index (Pichia kudriavzevii [16]) was 10, the Activity (Candida albicans [17]) was 21.92% and the Activity (Cryptococcus neoformans [18]) was 3.13%. For the same molecule, the Activity (Cryptococcus neoformans [19]) was 8.38%, the Activity (Cryptococcus neoformans [20]) was 5.68% and the Activity (Cryptococcus neoformans [21]) was 3.21%. It also gave an Activity (Cryptococcus neoformans [22]) of 11.5%, an AUC(0-inf) [23] of 4830 ng·h/mL and a t1/2 [24] of 6.79 h. For the same molecule, the Cmax [25] was 2290 ng/mL, the AUC [26] was 2286 ng·h/mL and the MRT inf [27] was 2.32 h. The Activity [28] was “Non-toxic”, the Activity [29] was “Non-toxic” and the Activity [30] was “Non-toxic”. The Activity [31] was “Non-toxic”, the Activity [32] was “Non-toxic” and the Activity [33] was “Non-toxic”.
